Values of other authors in patent US20110166187A1, “METHODS OF USING SUSTAINED RELEASE AMINOPYRIDINE COMPOSITIONS” (priority 2004, published 2011).

Tested on: voltage dependent, neuronal potassium channels

**Q.** With `Nc1ccncc1` [fampridine, 4-aminopyridine] as the compound, how does the “concentrations at which it appears to be a specific blocker of voltage dependent, neuronal potassium channels” value read?
**A.** The value was 1 to 2 µM.
